Laboratory results as given in patent publication US20080009418A1, “Selective Inhibitors” (Alchemia LTD., priority 2004, published 2008).

Assays:
Human δ-opioid (DOP) = molecular target: T1, Human δ-opioid (DOP) (Homo sapiens, UniProt P41143); assay: Radioligand binding, human δ-opioid (DOP) membranes, FlashPlate, [3H]-Bremazocine; conditions: compound at 10 μM; for A1: inhibition of radioligand binding, human δ-opioid (DOP) / A1: inhibition of radioligand binding: [3H]-Bremazocine; for A1: inhibition of radioligand binding: FlashPlate
T1 construct: purchased Perkin Elmer Biosignal
T1 sequence (P41143 whole entry): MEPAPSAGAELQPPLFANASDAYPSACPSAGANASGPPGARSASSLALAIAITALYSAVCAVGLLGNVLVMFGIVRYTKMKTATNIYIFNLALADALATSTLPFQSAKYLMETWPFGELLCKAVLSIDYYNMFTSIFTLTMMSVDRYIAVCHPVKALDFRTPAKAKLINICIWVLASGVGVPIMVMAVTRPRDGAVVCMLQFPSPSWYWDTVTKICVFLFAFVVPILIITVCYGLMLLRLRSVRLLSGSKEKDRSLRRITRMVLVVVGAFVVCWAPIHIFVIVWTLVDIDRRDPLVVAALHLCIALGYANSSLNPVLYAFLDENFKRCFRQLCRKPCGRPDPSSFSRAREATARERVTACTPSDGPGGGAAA
Summary of the method: (§1)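 Cloned human receptor membranes were coated onto FlashPlate wells and incubated with radioligand and compound (added from a 0.5 mM DMSO daughter plate) for 1 hour at room temperature in the dark. Scintillation counting gave percent inhibition, with DMSO defining total and reference ligand defining non-specific binding.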

Human κ-Opioid (KOP) = molecular target: T2, Human κ-Opioid (KOP) (Homo sapiens, UniProt P41145); assay: Radioligand binding, human κ-opioid (KOP) membranes, filtration, [3H]-Diprenorphine; conditions: compound at 10 μM; for A2: inhibition of radioligand binding, human κ-opioid (KOP) / A2: inhibition of radioligand binding: [3H]-Diprenorphine; for A2: inhibition of radioligand binding: filtration
T2 construct: purchased Perkin Elmer Biosignal
T2 sequence (P41145 whole entry): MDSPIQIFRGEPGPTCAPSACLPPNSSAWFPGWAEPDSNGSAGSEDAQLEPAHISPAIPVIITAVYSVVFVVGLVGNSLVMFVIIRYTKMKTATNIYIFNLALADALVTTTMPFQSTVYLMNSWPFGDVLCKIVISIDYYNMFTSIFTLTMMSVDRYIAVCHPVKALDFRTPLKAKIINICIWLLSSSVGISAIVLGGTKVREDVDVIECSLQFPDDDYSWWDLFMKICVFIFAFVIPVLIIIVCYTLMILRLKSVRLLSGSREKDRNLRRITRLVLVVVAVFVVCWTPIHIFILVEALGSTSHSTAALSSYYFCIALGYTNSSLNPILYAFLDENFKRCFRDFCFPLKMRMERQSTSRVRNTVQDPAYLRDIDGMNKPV
Summary of the method: (§2)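 Percent inhibition of radioligand binding measured on recombinant human membranes: NK1 with [125I]-Substance P, KOP with [3H]-Diprenorphine. Incubation 1 h at room temperature, then harvest onto 0.3% PEI-soaked filters, cold Tris-HCl pH 7.4 washes and scintillation counting; non-specific binding from reference ligand wells.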

Human Melanocortin (MC3) = molecular target: T3, Human Melanocortin (MC3) (Homo sapiens, UniProt P41968); assay: Radioligand binding, human melanocortin MC3 membranes, FlashPlate, [125I]-NDP-αMSH; conditions: compound at 10 μM; for A3: inhibition of radioligand binding, human melanocortin (MC3) / A3: inhibition of radioligand binding: [125I]-NDP-αMSH; for A3: inhibition of radioligand binding: FlashPlate
T3 construct: purchased Perkin Elmer Biosignal
T3 sequence (P41968 whole entry): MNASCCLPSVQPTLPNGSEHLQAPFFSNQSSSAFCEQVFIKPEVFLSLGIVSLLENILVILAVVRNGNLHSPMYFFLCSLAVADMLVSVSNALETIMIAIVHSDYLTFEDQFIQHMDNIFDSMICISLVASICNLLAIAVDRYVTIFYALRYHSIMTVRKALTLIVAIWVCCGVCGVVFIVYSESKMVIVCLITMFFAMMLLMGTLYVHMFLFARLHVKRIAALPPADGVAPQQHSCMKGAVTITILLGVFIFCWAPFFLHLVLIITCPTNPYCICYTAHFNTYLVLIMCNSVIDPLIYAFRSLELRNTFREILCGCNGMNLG
Summary of the method: as §1

Human Melanocortin (MC4) = molecular target: T4, Human Melanocortin (MC4) (Homo sapiens, UniProt P32245); assay: Radioligand binding, human melanocortin MC4 membranes, FlashPlate, [125I]-NDP-αMSH; conditions: compound at 10 μM; for A4: inhibition of radioligand binding, human melanocortin (MC4) / A4: inhibition of radioligand binding: [125I]-NDP-αMSH; for A4: inhibition of radioligand binding: FlashPlate
T4 construct: purchased Perkin Elmer Biosignal
T4 sequence (P32245 whole entry): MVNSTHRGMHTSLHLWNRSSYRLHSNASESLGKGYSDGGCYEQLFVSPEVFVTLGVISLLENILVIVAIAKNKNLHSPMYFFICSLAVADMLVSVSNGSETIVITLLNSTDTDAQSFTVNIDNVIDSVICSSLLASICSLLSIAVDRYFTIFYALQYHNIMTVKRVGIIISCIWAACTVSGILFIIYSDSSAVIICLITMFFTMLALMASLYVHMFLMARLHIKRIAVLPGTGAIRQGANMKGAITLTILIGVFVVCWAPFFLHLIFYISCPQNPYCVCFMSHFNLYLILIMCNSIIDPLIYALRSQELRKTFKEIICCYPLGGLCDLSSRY
Summary of the method: as §1

Human melanocortin (MC5) = molecular target: T5, Human melanocortin (MC5) (Homo sapiens, UniProt P33032); assay: Radioligand binding, human melanocortin MC5 membranes, FlashPlate, [125I]-NDP-αMSH; conditions: compound at 10 μM; for A5: inhibition of radioligand binding, human melanocortin (MC5) / A5: inhibition of radioligand binding: [125I]-NDP-αMSH; for A5: inhibition of radioligand binding: FlashPlate
T5 construct: purchased Perkin Elmer Biosignal
T5 sequence (P33032 whole entry): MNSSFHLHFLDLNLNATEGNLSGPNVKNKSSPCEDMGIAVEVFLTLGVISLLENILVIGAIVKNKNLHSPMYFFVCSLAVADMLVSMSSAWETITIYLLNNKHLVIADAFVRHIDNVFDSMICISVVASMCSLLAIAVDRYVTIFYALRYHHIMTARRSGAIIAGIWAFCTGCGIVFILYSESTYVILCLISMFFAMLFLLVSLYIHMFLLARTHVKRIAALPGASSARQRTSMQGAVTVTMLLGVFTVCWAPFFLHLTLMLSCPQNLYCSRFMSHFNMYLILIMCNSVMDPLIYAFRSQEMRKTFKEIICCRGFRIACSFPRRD
Summary of the method: as §1

[1] = molecular target: T6, Human melanin-concentrating hormone (MCH1) (Homo sapiens, UniProt Q99705); assay: Radioligand binding, human melanin-concentrating hormone MCH1 membranes, FlashPlate, [125I]-S36057; conditions: compound at 10 μM; for A6: inhibition of radioligand binding, human melanin-concentrating hormone (MCH1): [125I]-S36057; for A6: inhibition of radioligand binding: [125I]-S36057, FlashPlate
T6 construct: purchased Perkin Elmer Biosignal
T6 sequence (Q99705 whole entry): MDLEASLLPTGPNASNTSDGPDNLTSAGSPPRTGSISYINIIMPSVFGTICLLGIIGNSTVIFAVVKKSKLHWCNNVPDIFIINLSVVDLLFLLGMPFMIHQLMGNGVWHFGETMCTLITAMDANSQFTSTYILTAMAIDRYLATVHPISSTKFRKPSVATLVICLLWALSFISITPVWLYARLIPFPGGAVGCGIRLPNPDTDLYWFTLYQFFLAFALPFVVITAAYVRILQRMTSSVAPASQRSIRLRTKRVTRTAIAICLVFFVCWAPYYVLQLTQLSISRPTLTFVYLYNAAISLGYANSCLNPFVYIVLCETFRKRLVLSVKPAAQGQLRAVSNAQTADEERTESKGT
Summary of the method: as §1

Human μ-opioid (MOP) = molecular target: T7, Human μ-opioid (MOP) (Homo sapiens, UniProt P35372); assay: Radioligand binding, human μ-opioid (MOP) membranes, FlashPlate, [3H]-Naloxone; conditions: compound at 10 μM; for A7: inhibition of radioligand binding, human μ-opioid (MOP) / A7: inhibition of radioligand binding: [3H]-Naloxone; for A7: inhibition of radioligand binding: FlashPlate
T7 construct: purchased Perkin Elmer Biosignal
T7 sequence (P35372 whole entry): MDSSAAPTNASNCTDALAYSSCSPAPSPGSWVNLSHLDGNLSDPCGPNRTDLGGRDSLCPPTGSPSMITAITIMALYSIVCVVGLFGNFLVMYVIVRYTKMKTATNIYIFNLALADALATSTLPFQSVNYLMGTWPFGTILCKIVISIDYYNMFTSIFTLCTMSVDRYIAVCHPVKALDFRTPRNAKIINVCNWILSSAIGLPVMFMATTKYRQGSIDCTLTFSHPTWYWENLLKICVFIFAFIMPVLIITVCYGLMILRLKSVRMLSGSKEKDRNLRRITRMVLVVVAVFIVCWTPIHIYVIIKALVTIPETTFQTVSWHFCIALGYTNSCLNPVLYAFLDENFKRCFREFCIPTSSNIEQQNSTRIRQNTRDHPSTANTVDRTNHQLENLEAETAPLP
Summary of the method: as §1

Human neurokinin (NK1) = molecular target: T8, Human neurokinin (NK1) (Homo sapiens, UniProt P25103); assay: Radioligand binding, human neurokinin NK1 membranes, filtration, [125I]-Substance P; conditions: compound at 10 μM; for A8: inhibition of radioligand binding, human neurokinin (NK1) / A8: inhibition of radioligand binding: [125I]-Substance P; for A8: inhibition of radioligand binding: filtration
T8 construct: purchased Perkin Elmer Biosignal
T8 sequence (P25103 whole entry): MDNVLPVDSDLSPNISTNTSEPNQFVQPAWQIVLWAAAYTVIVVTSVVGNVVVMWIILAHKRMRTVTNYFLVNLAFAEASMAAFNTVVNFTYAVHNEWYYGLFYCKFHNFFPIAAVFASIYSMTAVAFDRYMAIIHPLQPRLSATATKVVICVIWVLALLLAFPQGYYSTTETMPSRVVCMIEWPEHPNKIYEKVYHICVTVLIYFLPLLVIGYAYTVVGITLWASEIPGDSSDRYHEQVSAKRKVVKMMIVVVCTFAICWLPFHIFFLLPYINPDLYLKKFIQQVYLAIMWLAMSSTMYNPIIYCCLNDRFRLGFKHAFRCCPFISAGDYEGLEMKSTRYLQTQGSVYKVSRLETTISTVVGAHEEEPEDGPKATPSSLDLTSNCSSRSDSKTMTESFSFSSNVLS
Summary of the method: as §2

[2] = molecular target: T9, Human neuropeptide Y (NPY-Y1) (Homo sapiens, UniProt P25929); assay: Radioligand binding, human neuropeptide Y NPY-Y1 membranes, FlashPlate, [125I]-PYY; conditions: compound at 10 μM; for A9: inhibition of radioligand binding, human neuropeptide Y (NPY-Y1) / A9: inhibition of radioligand binding: [125I]-PYY; for A9: inhibition of radioligand binding: FlashPlate
T9 construct: purchased Perkin Elmer Biosignal
T9 sequence (P25929 1-384): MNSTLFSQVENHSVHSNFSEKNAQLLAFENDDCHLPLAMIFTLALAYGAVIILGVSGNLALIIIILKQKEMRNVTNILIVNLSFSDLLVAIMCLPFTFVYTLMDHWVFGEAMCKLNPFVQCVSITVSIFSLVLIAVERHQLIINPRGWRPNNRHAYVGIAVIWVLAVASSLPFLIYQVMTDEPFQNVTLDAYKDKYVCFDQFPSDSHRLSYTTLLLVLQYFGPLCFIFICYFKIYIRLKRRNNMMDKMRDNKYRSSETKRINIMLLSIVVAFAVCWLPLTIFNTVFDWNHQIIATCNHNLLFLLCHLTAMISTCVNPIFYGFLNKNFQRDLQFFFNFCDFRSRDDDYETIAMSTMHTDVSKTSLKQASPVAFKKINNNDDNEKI
Summary of the method: as §1

Human opioid (ORL1) = molecular target: T10, Human opioid (ORL1) (Homo sapiens, UniProt P41146); assay: Radioligand binding, human opioid ORL1 membranes, FlashPlate, [125I]-Nociceptin; conditions: compound at 10 μM; for A10: inhibition of radioligand binding, human opioid (ORL1) / A10: inhibition of radioligand binding: [125I]-Nociceptin; for A10: inhibition of radioligand binding: FlashPlate
T10 construct: purchased Perkin Elmer Biosignal
T10 sequence (P41146 whole entry): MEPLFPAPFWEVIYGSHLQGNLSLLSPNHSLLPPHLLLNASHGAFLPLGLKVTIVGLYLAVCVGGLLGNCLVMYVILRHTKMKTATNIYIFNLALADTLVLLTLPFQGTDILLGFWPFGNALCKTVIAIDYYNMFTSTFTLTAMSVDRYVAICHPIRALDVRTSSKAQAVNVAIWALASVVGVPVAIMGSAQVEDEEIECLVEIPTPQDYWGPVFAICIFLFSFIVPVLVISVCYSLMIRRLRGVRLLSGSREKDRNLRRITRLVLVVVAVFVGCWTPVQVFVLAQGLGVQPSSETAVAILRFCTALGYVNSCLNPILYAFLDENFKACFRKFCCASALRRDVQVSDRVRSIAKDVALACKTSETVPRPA
Summary of the method: as §1

Mouse urotensin (mUR2) = molecular target: T11, Mouse urotensin (mUR2) (Mus musculus, UniProt Q8VIH9); assay: Radioligand binding, mouse urotensin mUR2 membranes, FlashPlate, [125I]-Urotensin II; conditions: compound at 10 μM; for A11: inhibition of radioligand binding, mouse urotensin (mUR2) / A11: inhibition of radioligand binding: [125I]-Urotensin II; for A11: inhibition of radioligand binding: FlashPlate
T11 construct: purchased Perkin Elmer Biosignal
T11 sequence (Q8VIH9 1-385): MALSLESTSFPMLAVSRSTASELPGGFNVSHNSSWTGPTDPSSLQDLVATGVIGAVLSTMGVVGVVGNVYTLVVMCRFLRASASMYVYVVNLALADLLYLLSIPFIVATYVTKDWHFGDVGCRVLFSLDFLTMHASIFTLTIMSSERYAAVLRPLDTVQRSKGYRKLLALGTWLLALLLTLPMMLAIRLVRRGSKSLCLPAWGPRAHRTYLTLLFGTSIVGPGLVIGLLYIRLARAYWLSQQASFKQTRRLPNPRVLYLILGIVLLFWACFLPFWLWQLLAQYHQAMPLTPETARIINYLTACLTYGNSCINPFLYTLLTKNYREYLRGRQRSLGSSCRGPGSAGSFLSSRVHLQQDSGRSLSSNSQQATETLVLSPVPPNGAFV
Summary of the method: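 Cloned mouse urotensin (mUR2) receptor membranes from Perkin Elmer Biosignal were immobilized in FlashPlate microplates using a proprietary coating. Each well got 19.5 μl buffer, then 0.5 μl of DMSO, reference ligand, or compound. Adding 5 μl of [125I]-Urotensin II, diluted to 5× final concentration in binding buffer, started binding. Plates were sealed with TopSeal-A and incubated 1 hour at room temperature in the dark. Wells were counted for 30 seconds each on a TopCount after a 60-second delay, and percentage inhibition was calculated.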

Row | SMILES | A1: inhibition of radioligand binding, human δ-opioid (DOP) (Human δ-opioid (DOP)) | A2: inhibition of radioligand binding, human κ-opioid (KOP) (Human κ-Opioid (KOP)) | A3: inhibition of radioligand binding, human melanocortin (MC3) (Human Melanocortin (MC3)) | A4: inhibition of radioligand binding, human melanocortin (MC4) (Human Melanocortin (MC4)) | A5: inhibition of radioligand binding, human melanocortin (MC5) (Human melanocortin (MC5)) | A6: inhibition of radioligand binding, human melanin-concentrating hormone (MCH1) [1] | A7: inhibition of radioligand binding, human μ-opioid (MOP) (Human μ-opioid (MOP)) | A8: inhibition of radioligand binding, human neurokinin (NK1) (Human neurokinin (NK1)) | A9: inhibition of radioligand binding, human neuropeptide Y (NPY-Y1) [2] | A10: inhibition of radioligand binding, human opioid (ORL1) (Human opioid (ORL1)) | A11: inhibition of radioligand binding, mouse urotensin (mUR2) (Mouse urotensin (mUR2)) | A1: inhibition of radioligand binding (Human δ-opioid (DOP)) | A2: inhibition of radioligand binding (Human κ-Opioid (KOP)) | A3: inhibition of radioligand binding (Human Melanocortin (MC3)) | A4: inhibition of radioligand binding (Human Melanocortin (MC4)) | A5: inhibition of radioligand binding (Human melanocortin (MC5)) | A6: inhibition of radioligand binding [1] | A7: inhibition of radioligand binding (Human μ-opioid (MOP)) | A8: inhibition of radioligand binding (Human neurokinin (NK1)) | A9: inhibition of radioligand binding [2] | other results
1 | CSC1O[C@H](COCc2ccc3ccccc3c2)[C@@H](O)[C@@H](OCc2ccc(-c3ccccc3)cc2)[C@H]1NC(=O)CCNC(=N)N (stereo partly shown) [compound 298] | − (“−” indicates less than 50% inhibition at 10 μM) | − (“−” indicates less than 50% inhibition at 10 μM) | − (“−” indicates less than 50% inhibition at 10 μM) | − (“−” indicates less than 50% inhibition at 10 μM) | + (“+” indicates greater than 50% inhibition at 10 μM) | − (“−” indicates less than 50% inhibition at 10 μM) | − (“−” indicates less than 50% inhibition at 10 μM) | + (“+” indicates greater than 50% inhibition at 10 μM) | − (“−” indicates less than 50% inhibition at 10 μM) | − (“−” indicates less than 50% inhibition at 10 μM) | − (“−” indicates less than 50% inhibition at 10 μM) | – | – | – | – | – | – | – | – | – | –
2 | COCC1OC(OCc2ccc(Cl)cc2)C(NC(=O)CCNC(=N)N)C(OCc2ccccc2)C1O (stereo not shown) [compound 196] | – | – | – | – | – | – | – | – | – | – | – | + (“+” indicates greater than 50% inhibition at 10 μM) | − (“−” indicates less than 50% inhibition at 10 μM) | − (“−” indicates less than 50% inhibition at 10 μM) | − (“−” indicates less than 50% inhibition at 10 μM) | − (“−” indicates less than 50% inhibition at 10 μM) | − (“−” indicates less than 50% inhibition at 10 μM) | − (“−” indicates less than 50% inhibition at 10 μM) | + (“+” indicates greater than 50% inhibition at 10 μM) | − (“−” indicates less than 50% inhibition at 10 μM) | A10: inhibition of radioligand binding (Human opioid (ORL1)): − (“−” indicates less than 50% inhibition at 10 μM); A11: inhibition of radioligand binding (Mouse urotensin (mUR2)): − (“−” indicates less than 50% inhibition at 10 μM)
3 | CSC1O[C@H](COCc2ccc(Cl)cc2)[C@@H](O)[C@@H](OCc2ccc(-c3ccccc3)cc2)[C@H]1NC(=O)CNC(=N)N (stereo partly shown) [compound 289] | − (“−” indicates less than 50% inhibition at 10 μM) | − (“−” indicates less than 50% inhibition at 10 μM) | − (“−” indicates less than 50% inhibition at 10 μM) | + (“+” indicates greater than 50% inhibition at 10 μM) | + (“+” indicates greater than 50% inhibition at 10 μM) | − (“−” indicates less than 50% inhibition at 10 μM) | − (“−” indicates less than 50% inhibition at 10 μM) | + (“+” indicates greater than 50% inhibition at 10 μM) | − (“−” indicates less than 50% inhibition at 10 μM) | − (“−” indicates less than 50% inhibition at 10 μM) | − (“−” indicates less than 50% inhibition at 10 μM) | – | – | – | – | – | – | – | – | – | –
4 | CO[C@H]1[C@H](O)[C@@H](COCc2ccc3ccccc3c2)OC(OCc2ccccc2)[C@@H]1NC(=O)CCNC(=N)N (stereo partly shown) [compound 87] | – | – | – | – | – | – | – | – | – | – | – | – | – | – | – | – | – | – | – | – | A1 radioligand binding inhibition (Human δ-opioid (DOP); human δ-opioid (DOP) membranes): − (“−” indicates less than 50% inhibition at 10 μM); A2 radioligand binding inhibition (Human κ-Opioid (KOP); human κ-opioid (KOP) membranes): − (“−” indicates less than 50% inhibition at 10 μM); A3 radioligand binding inhibition (Human Melanocortin (MC3); human melanocortin MC3 membranes): − (“−” indicates less than 50% inhibition at 10 μM); A4 radioligand binding inhibition (Human Melanocortin (MC4); human melanocortin MC4 membranes): − (“−” indicates less than 50% inhibition at 10 μM); A5 radioligand binding inhibition (Human melanocortin (MC5); human melanocortin MC5 membranes): − (“−” indicates less than 50% inhibition at 10 μM); A6 radioligand binding inhibition ([1]; human MCH1 membranes): − (“−” indicates less than 50% inhibition at 10 μM); A7 radioligand binding inhibition (Human μ-opioid (MOP); human μ-opioid (MOP) membranes): − (“−” indicates less than 50% inhibition at 10 μM); A8 radioligand binding inhibition (Human neurokinin (NK1); human neurokinin NK1 membranes): + (“+” indicates greater than 50% inhibition at 10 μM); A9 radioligand binding inhibition ([2]; human NPY-Y1 membranes): − (“−” indicates less than 50% inhibition at 10 μM); A10 radioligand binding inhibition (Human opioid (ORL1); human ORL1 membranes): − (“−” indicates less than 50% inhibition at 10 μM); A11 radioligand binding inhibition (Mouse urotensin (mUR2); mouse urotensin mUR2 membranes): − (“−” indicates less than 50% inhibition at 10 μM)
5 | CSC1OC(COCc2ccc3ccccc3c2)C(O)C(OCc2ccccc2)C1NC(=O)CNC(=N)N (stereo not shown) [compound 260] | – | – | – | – | – | – | – | – | – | – | – | − (“−” indicates less than 50% inhibition at 10 μM) | − (“−” indicates less than 50% inhibition at 10 μM) | − (“−” indicates less than 50% inhibition at 10 μM) | + (“+” indicates greater than 50% inhibition at 10 μM) | − (“−” indicates less than 50% inhibition at 10 μM) | − (“−” indicates less than 50% inhibition at 10 μM) | − (“−” indicates less than 50% inhibition at 10 μM) | − (“−” indicates less than 50% inhibition at 10 μM) | − (“−” indicates less than 50% inhibition at 10 μM) | A10: inhibition of radioligand binding (Human opioid (ORL1)): − (“−” indicates less than 50% inhibition at 10 μM); A11: inhibition of radioligand binding (Mouse urotensin (mUR2)): − (“−” indicates less than 50% inhibition at 10 μM)
